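All cell lines were grown in 96-well plates and treated with compound for 48 hours. GI50 marks 50% less growth. The concentration for full growth arrest is given as TGI.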
Key:
Test in all cases: growth of human tumour cells (NCI), 48 h
KM12 colon = system: KM12 colon
SN12C renal = system: SN12C renal
NCI-H460 lung = system: NCI-H460 lung
PC-3 prostate = system: PC-3 prostate
MDA-MB-231 breast = system: MDA-MB-231 breast
DU-145 prostate = system: DU-145 prostate
IGROV1 ovarian = system: IGROV1 ovarian
HOP-62 NSCLC = system: HOP-62 NSCLC
HCT-116 colon = system: HCT-116 colon
ACHN renal = system: ACHN renal
RXF 393 renal = system: RXF 393 renal
EKVX NSCLC = system: EKVX NSCLC
UO-31 renal = system: UO-31 renal
SW-620 colon = system: SW-620 colon
K-562 leukemia = system: K-562 leukemia
SF-539 CNS = system: SF-539 CNS
SK-MEL-2 melanoma = system: SK-MEL-2 melanoma
HCT-15 colon = system: HCT-15 colon
SF-268 CNS = system: SF-268 CNS
HL-60(TB) leukemia = system: HL-60(TB) leukemia
NCI-H226 lung = system: NCI-H226 lung
UACC-62 melanoma = system: UACC-62 melanoma
OVCAR-5 ovarian = system: OVCAR-5 ovarian
TK-10 renal = system: TK-10 renal
LOX IMVI melanoma = system: LOX IMVI melanoma
SNB-75 CNS = system: SNB-75 CNS
COLO 205 colon = system: COLO 205 colon
MOLT-4 leukemia = system: MOLT-4 leukemia
SK-MEL-28 melanoma = system: SK-MEL-28 melanoma
A549 NSCLC = system: A549 NSCLC
RPMI-8226 leukemia = system: RPMI-8226 leukemia
HS 578T breast = system: HS 578T breast
U251 CNS = system: U251 CNS
OVCAR-8 ovarian = system: OVCAR-8 ovarian
SNB-19 CNS = system: SNB-19 CNS
MCF7 breast = system: MCF7 breast
NCI-H23 lung = system: NCI-H23 lung
HT29 colon = system: HT29 colon
HOP-92 NSCLC = system: HOP-92 NSCLC
NCI/ADR-RES ovarian = system: NCI/ADR-RES ovarian
786-0 renal = system: 786-0 renal
M14 melanoma = system: M14 melanoma
SK-OV-3 ovarian = system: SK-OV-3 ovarian
UACC-257 melanoma = system: UACC-257 melanoma
SK-MEL-5 melanoma = system: SK-MEL-5 melanoma
A498 renal = system: A498 renal
BT-549 breast = system: BT-549 breast

## COc1ccc2c(c1)SC1=NNC(Cl)C(=O)N12 (centres undefined)
KM12 colon
  GI50: 20.7 µM
  TGI: 48 µM
SN12C renal
  GI50: 16.5 µM
  TGI: 37.3 µM
NCI-H460 lung
  GI50: 29.5 µM
  TGI: > 100 µM
PC-3 prostate
  GI50: 37 µM
  TGI: > 100 µM
MDA-MB-231 breast
  GI50: 15.3 µM
  TGI: 35.6 µM
DU-145 prostate
  GI50: 12.8 µM
  TGI: 30.3 µM
IGROV1 ovarian
  GI50: 25.2 µM
  TGI: > 100 µM
HOP-62 NSCLC
  GI50: 45.5 µM
  TGI: > 100 µM
HCT-116 colon
  GI50: 24 µM
  TGI: 87.3 µM
ACHN renal
  GI50: 12.4 µM
  TGI: 26.3 µM
RXF 393 renal
  GI50: 18.4 µM
  TGI: 59.1 µM
EKVX NSCLC
  GI50: 10.5 µM
  TGI: 29.1 µM
UO-31 renal
  GI50: 5.9 µM
  TGI: > 100 µM
SW-620 colon
  GI50: 21.8 µM
  TGI: 65.7 µM
K-562 leukemia
  GI50: 35.3 µM
  TGI: > 100 µM
SF-539 CNS
  GI50: 15.6 µM
  TGI: 37.8 µM
SK-MEL-2 melanoma
  GI50: 42.1 µM
  TGI: > 100 µM
HCT-15 colon
  GI50: 15.8 µM
  TGI: 38.4 µM
SF-268 CNS
  GI50: 24.2 µM
  TGI: 62.1 µM
HL-60(TB) leukemia
  GI50: 33.9 µM
  TGI: > 100 µM
NCI-H226 lung
  GI50: 16.2 µM
  TGI: 64.3 µM
UACC-62 melanoma
  GI50: 15.6 µM
  TGI: 36 µM
OVCAR-5 ovarian
  GI50: 27.9 µM
  TGI: 94.1 µM
TK-10 renal
  GI50: 26.6 µM
  TGI: 81.1 µM
LOX IMVI melanoma
  GI50: 16 µM
  TGI: 37.4 µM
SNB-75 CNS
  GI50: 30.3 µM
  TGI: 83.5 µM
COLO 205 colon
  GI50: 16.7 µM
  TGI: 44.3 µM
MOLT-4 leukemia
  GI50: 31.2 µM
  TGI: > 100 µM
SK-MEL-28 melanoma
  GI50: 13.7 µM
  TGI: 35.2 µM
A549 NSCLC
  GI50: 38.1 µM
  TGI: > 100 µM
RPMI-8226 leukemia
  GI50: 18.2 µM
  TGI: 54.1 µM
HS 578T breast
  GI50: 40.4 µM
  TGI: > 100 µM
U251 CNS
  GI50: 18.9 µM
  TGI: 45.1 µM
OVCAR-8 ovarian
  GI50: 21.5 µM
  TGI: 54.2 µM
SNB-19 CNS
  GI50: 38.4 µM
  TGI: > 100 µM
MCF7 breast
  GI50: 24.5 µM
  TGI: > 100 µM
NCI-H23 lung
  GI50: 18 µM
  TGI: 39.6 µM
HT29 colon
  GI50: 11.8 µM
  TGI: 35.1 µM
HOP-92 NSCLC
  GI50: 20.1 µM
  TGI: 56.2 µM
NCI/ADR-RES ovarian
  GI50: 19.8 µM
  TGI: 47.6 µM
786-0 renal
  GI50: 33.2 µM
  TGI: > 100 µM
M14 melanoma
  GI50: 17.3 µM
  TGI: 48.4 µM
SK-OV-3 ovarian
  GI50: 33 µM
  TGI: > 100 µM
UACC-257 melanoma
  GI50: 18.2 µM
  TGI: 42.5 µM
SK-MEL-5 melanoma
  GI50: 15.6 µM
  TGI: 34 µM
A498 renal
  GI50: 26.1 µM
  TGI: 53.3 µM
BT-549 breast
  GI50: 17.2 µM
  TGI: 40.6 µM

Source: PubChem BioAssay (NCI)
